Source: US20230181727A1, “COMPOSITION OF NANOPARTICLES” (priority 2020, published 2023)

Key:
[1] = Solubility enhancement of epitopes (solubility in water); type: physicochemical
Source text: On the N-terminal site of the enzymatically cleaved linker the addition of polar amino acids can be used to enhance the solubility of the whole peptide. […] The use in a human vaccine is difficult. In animal studies researchers dissolve it in DMSO. The solubility after e.g. subcutaneous injection is questionable: dilution might result in precipitation of large peptide particles, which is very unfavorable for transport to lymphnodes.
According to the invention the epitope […] was enlarged on the N-terminal site with the enzymatic cleavable linker Val-Cit and the cationic solubilizing sequence Lys-Lys-Lys, leading to […]

DC2.4 cells = experiment: MHC I cross presentation of OVA 257-264 in DC2.4 cells; type: cell-based, murine; settings: 5 μM, 6 h incubation, 25-D1.16 antibody, flow cytometry
Experimental: In the experiment, the OVA257-264 presentation efficacy after incubation of 5.10^4 DC2.4 cells with 5 μM solutions of full length protein (OVA=Ovalbumin), N— and C-terminal elongated epitope (OVA247-264A5K, a so called synthetic long peptide (SLP)), N-terminal elongated epitope with a Cathepsin B cleavable sequence (exemplary shown RW-Cit-OVA257-264) or native epitope (OVA257-264), each with and without nanoparticles, was compared. […] After an incubation time of 6 h, the test substances are removed by washing with phosphate-buffered saline (PBS). In the next step, the cells were incubated with CD1 6/CD32 antibody in order to block the non-specific binding of the detection antibody to the Fc (Fragment, crystallizable) receptor of the cells. After incubation with 25-D1.16 antibody, the amount of cross-presented OVA257-264 was quantified by flow cytometry.
FIG. 16: OVA257-264 MHC I expression after 6 h incubation of H2-Kb positive cells with 5 μM solution of native or elongated OVA257-264 epitope or full length OVA protein with or without SiO2—PO3H2. Quantification was carried out by flow cytometry after labeling with 25-D1.16 detection antibody.

Molecule	solubility in water [1]	OVA257-264 MHC I expression (DC2.4 cells)
CC[C@H](C)[C@H](NC(=O)CNC(=O)[C@H](CC(C)C)NC(=O)[C@@H](NC(=O)CNC(=O)[C@H](CCSC)NC(=O)[C@H](CC(C)C)NC(=O)[C@H](CC(C)C)NC(=O)[C@H](CCCNC(N)=O)NC(=O)[C@@H](NC(=O)[C@H](CCCCN)NC(=O)[C@H](CCCCN)NC(=O)[C@@H](N)CCCCN)C(C)C)[C@@H](C)O)C(=O)N[C@H](C(=O)O)C(C)C	excellent solubility in water	
CC[C@H](C)[C@H](NC(=O)CNC(=O)[C@H](CC(C)C)NC(=O)[C@@H](NC(=O)CNC(=O)[C@H](CCSC)NC(=O)[C@H](CC(C)C)NC(=O)[C@@H](N)CC(C)C)[C@@H](C)O)C(=O)N[C@H](C(=O)O)C(C)C	very bad solubility in water	
SIINFEKL [OVA257-264]		presented in significant amounts
